The record followed here is patent publication US9107411B2, “Indolecarboxamides and benzimidazolecarboxamides as insecticides and acaricides” (BAYER INTELLECTUAL PROPERTY GMBH, priority 2011, dated 2015).

Where two headings read alike, the source gives them in different places.

For data set [1], the system named is Thrips palmi. The data set is described as follows: Thrips palmi spray test (THRIPL). The class given is in vivo. The following applies: application rate 20 ppm; cucumber plants; after 6 days. On the procedure:
Thrips palmi Spray Test (THRIPL)
(§1) Solvent: 3 parts by weight of dimethylformamide
(§2) Emulsifier: 1 part by weight of polyoxyethylene alkylphenyl ether
(§3) To produce an appropriate active ingredient formulation, 1 part by weight of active ingredient is mixed with the stated amounts of solvent and emulsifier, and the concentrate is diluted with emulsifier-containing water to the desired concentration. If required, ammonium salts or ammonium salts and penetrants are additionally added in a concentration of 1000 ppm.
Young cucumber plants (Cucumis sativus) are sprayed with an active ingredient formulation of the desired concentration. After drying, filter paper discs with about 100 thrips eggs (Thrips palmi) are placed onto the treated plants and, to give 100% air humidity, covered with housings.
After 6 days, the efficacy in % feeding damage is determined 100% means that there is no feeding damage; 0% means that there is no difference from the untreated control.

In data set [2] the test system is Tetranychus urticae. As to the kind of experiment: Tetranychus test, OP-resistant (TETRUR spray treatment). The following applies: application rate 100 g/ha; bean leaf discs; after 6 days. The class given is in vivo. A digest of the protocol: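 Bean leaf discs infested with all stages of OP-resistant T. urticae sprayed with compound formulated in acetone/DMF plus alkylaryl polyglycol ether emulsifier, diluted in water. Efficacy (% mites killed) scored after 6 days.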

Data set [3] deals with Aulacophora femoralis. As to the kind of experiment: Aulacophora femoralis spray test (AUACFE). The format is in vivo. Particulars: application rate 20 ppm; cucumber plants, L2 larvae; after 6 days. Here is the method: Aulacophora femoralis Spray Test (AUACFE) Solvent: 3 parts by weight of dimethylformamide Emulsifier: 1 part by weight of polyoxyethylene alkylphenyl ether To produce an appropriate active ingredient formulation, 1 part by weight of active ingredient is mixed with the stated amounts of solvent and emulsifier, and the concentrate is diluted with emulsifier-containing water to the desired concentration. If required, ammonium salts or ammonium salts and penetrants are additionally added in a concentration of 1000 ppm. Young cucumber plants (Cucumis sativus) at the cotyledonous leaf stage are sprayed with an active ingredient formulation of the desired concentration. After drying, the treated plant material is introduced into test vessels and each is infected with 5 L2 larvae of the cucurbit leaf beetle (Aulacophora femoralis). After 6 days, the efficacy in % is determined. 100% means that all of the beetle larvae have been killed; 0% means that none of the beetle larvae have been killed.

Data set [4] deals with adult Musca domestica. The data set is described as follows: Musca domestica test (MUSCDO). The class given is in vivo. The following applies: application rate 100 ppm; treated sponge; after 2 days. A digest of the protocol: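 Compound dissolved in DMSO and diluted with water to the desired concentration was applied to a sponge, and vessels were populated with adult flies. Kill % was scored after 2 days, where 100% means all flies dead.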

Data set [5] relates to Lucilia cuprina larvae. The data set is described as follows: Lucilia cuprina test (LUCICU). The class given is in vivo. The following applies: application rate 100 ppm; treated horse meat; after 2 days. A digest of the protocol: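 About 20 Lucilia cuprina larvae placed on horse meat treated with compound formulation (DMSO concentrate diluted in water). Kill (%) scored after 2 days, 100% meaning all larvae dead.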

The subject of data set [6] is Ctenocephalides felis. The data set is described as follows: Ctenocephalides felis oral (CTECFE). The format is in vivo. Particulars: application rate 100 ppm in citrated cattle blood; after 2 days. A digest of the protocol:
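About 20 unfed adult fleas fed through a Parafilm membrane on citrated cattle blood containing the compound at the desired concentration, diluted from a DMSO concentrate. Kill in % was scored after 2 days, where 100% means all fleas dead and 0% none.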

For data set [7], the system named is Spodoptera frugiperda. The data set is described as follows: Spodoptera frugiperda test (SPODFR spray treatment). The format is in vivo. The following applies: application rate 100 g/ha; maize leaf discs; after 7 days. A digest of the protocol:
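Maize leaf discs sprayed with active ingredient formulated in acetone/dimethylformamide with emulsifier, diluted in emulsifier-containing water to the desired concentration. After drying, discs were populated with armyworm caterpillars. Efficacy (%) scored after 7 days: 100% all caterpillars killed, 0% none killed.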

Data set [8] deals with Spodoptera litura. As to the kind of experiment: Spodoptera litura test (PRODLI). The format is in vivo. Particulars: application rate 20 ppm; synthetic feed, L3 larvae; after 6 days. Here is the method: Spodoptera litura Test (PRODLI) Solvent: 3 parts by weight of dimethylformamide Emulsifier: 1 part by weight of polyoxyethylene alkylphenyl ether To produce an appropriate active ingredient formulation, 1 part by weight of active ingredient is mixed with the stated amounts of solvent and emulsifier, and the concentrate is diluted with emulsifier-containing water to the desired concentration. The base of a PET vessel (diameter 7.5 cm, depth 4 cm) is covered with 2.3 g of a pulverulent synthetic feed mixture. Then 5 ml of the active ingredient formulation are added and mixed at the same time with the synthetic feed. After gelation, 5 L3 larvae of the cotton leafworm (Spodoptera litura) are placed into each vessel. After 6 days, the efficacy in % is determined 100% means that all of the larvae have been killed; 0% means that none of the larvae have been killed.

A short description of data set [9]: logP (HPLC-MS). The class given is physicochemical.
Data set [10] has as its system Myzus persicae. The data set is described as follows: Myzus persicae spray test (MYZUPE - OP/Carb-resistant). The format is in vivo. The following applies: application rate 100 ppm; aubergine plants; after 6 days. Here is the method: Myzus persicae Spray Test (MYZUPE—OP/Carb-Resistant)
as §1, §2, §3
Aubergine plants (Solanum melongena) at the 2-leaf stage, which have been infested with a mixed population of the green peach aphid (Myzus persicae), are sprayed with an active ingredient formulation of the desired concentration.
After 6 days, the efficacy in % is determined. 100% means that all of the aphids have been killed; 0% means that none of the aphids have been killed.

As for `C#CCn1c(C(=O)NC(c2ccc(F)c(C(F)(F)F)c2)C(F)(F)F)cc2cc(C(=O)NC3CC3)c(Cl)cc21` (stereo not drawn) [Compound 6], the “efficacy in % feeding damage” value in [1] was determined as 90%. Also, the efficacy in % in [2] turned out to be 80%; in [3], 100%; in data set [7], 100%; in data set [8] it was 100%; in data set [10], 90%. Also, the “efficacy (kill in %)” value in [4], in [5] and in data set [6] was 100% throughout. The compound also yielded a log p in data set [9] (HPLC, reversed-phase column (C18), acidic range pH 2.7, acetonitrile (0.1% formic acid)/water gradient, 43° C., calibration with unbranched alkan-2-ones) of 3.59.
Consider `CCn1c(C(=O)NC(c2cccc(C(F)(F)F)c2)C(F)(F)F)cc2cc(C(=O)NC3(C#N)CC3)c(Cl)cc21` (stereo not drawn) [Compound 7, 6-chloro-N^5-(1-cyanocyclopropyl)-1-ethyl-N^2-{2,2,2-trifluoro-1-[3-(trifluoromethyl)phenyl]ethyl}-1H-indole-2,5-dicarboxamide], for which the “efficacy in % feeding damage” value in data set [1] came to 98%. Further, the efficacy in % in data set [2] worked out at 100%; in [3], 100%; in data set [7] it was 100%; in data set [8], 100%; in data set [10] it was 98%. Besides, the “efficacy (kill in %)” value in data set [4], in [5] and in data set [6] was 100% in each case. Besides, the chromatographic logP in [9] (HPLC, reversed-phase column (C18), acidic range pH 2.7, acetonitrile (0.1% formic acid)/water gradient, 43° C., calibration with unbranched alkan-2-ones, read-out: log p) came out at 3.78; in data set [9] (HPLC-MS), 3.8.
